pIC50: −log10 of the molar value. ≈ marks a conversion by molar mass, not a printed value.

As usually defined, the pIC50 is the negative decadic logarithm of the IC50, by convention in mol/L. One may read the solubility as the concentration that dissolves in the medium under given conditions. A higher solubility goes with a readily soluble substance. By logD is commonly meant lipophilicity at a set pH, counting ionised and neutral species. Higher therefore signals a more lipophilic compound. In general, efflux ratio refers to a quotient of directional permeabilities that is used to spot active efflux.

Chain of Poly [ADP-ribose] polymerase 2 (Q9UGN5 whole entry): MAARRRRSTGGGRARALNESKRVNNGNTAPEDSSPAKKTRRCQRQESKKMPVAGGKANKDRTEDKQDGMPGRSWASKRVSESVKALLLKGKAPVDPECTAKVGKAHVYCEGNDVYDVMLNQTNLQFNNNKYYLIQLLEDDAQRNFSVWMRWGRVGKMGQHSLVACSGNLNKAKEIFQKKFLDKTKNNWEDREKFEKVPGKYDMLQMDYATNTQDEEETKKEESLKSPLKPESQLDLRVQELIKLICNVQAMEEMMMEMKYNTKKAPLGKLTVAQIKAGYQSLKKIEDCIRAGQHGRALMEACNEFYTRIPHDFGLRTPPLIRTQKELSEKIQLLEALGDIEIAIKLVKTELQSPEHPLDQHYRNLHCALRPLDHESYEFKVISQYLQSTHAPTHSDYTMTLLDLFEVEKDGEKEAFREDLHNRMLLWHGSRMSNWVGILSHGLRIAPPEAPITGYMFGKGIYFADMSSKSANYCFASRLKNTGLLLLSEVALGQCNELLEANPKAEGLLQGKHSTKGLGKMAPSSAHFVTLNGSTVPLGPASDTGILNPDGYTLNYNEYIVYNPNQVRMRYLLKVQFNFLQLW
Chain of hERG (KCNH2) (Q12809 whole entry): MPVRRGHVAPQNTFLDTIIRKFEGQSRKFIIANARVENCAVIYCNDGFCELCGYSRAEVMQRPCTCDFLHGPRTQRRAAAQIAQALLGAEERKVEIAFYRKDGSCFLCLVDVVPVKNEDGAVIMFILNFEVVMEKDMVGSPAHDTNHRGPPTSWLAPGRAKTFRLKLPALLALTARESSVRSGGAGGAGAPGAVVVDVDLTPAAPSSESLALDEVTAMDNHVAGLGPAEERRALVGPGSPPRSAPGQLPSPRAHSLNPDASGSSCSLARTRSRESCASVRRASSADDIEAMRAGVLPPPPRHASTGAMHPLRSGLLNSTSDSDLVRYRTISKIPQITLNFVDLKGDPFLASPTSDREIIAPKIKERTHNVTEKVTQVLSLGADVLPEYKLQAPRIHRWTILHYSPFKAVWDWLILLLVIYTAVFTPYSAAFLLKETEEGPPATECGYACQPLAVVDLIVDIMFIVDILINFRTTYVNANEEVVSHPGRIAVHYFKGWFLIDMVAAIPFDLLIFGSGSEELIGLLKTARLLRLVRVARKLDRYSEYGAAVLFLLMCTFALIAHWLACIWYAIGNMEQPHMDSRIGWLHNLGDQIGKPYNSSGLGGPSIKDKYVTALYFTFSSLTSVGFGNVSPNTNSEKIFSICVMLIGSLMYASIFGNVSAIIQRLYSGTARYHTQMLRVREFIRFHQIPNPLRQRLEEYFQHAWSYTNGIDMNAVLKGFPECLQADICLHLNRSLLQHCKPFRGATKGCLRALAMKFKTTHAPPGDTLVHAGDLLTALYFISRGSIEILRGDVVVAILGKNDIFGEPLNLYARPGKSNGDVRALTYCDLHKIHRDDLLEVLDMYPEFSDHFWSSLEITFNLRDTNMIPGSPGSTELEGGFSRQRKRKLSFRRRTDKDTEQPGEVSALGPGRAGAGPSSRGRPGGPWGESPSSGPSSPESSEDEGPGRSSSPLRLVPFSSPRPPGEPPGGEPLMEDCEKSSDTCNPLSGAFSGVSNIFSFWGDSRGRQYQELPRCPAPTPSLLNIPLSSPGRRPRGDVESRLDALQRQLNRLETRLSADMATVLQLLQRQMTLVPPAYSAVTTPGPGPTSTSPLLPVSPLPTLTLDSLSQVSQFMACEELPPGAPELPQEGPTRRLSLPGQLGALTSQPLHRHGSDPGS

System in one data set: not listed separately
The data set is described as follows: Ratio of unbound drug concentration in brain to plasma of rat. In kind it is ADME, cell-free. As to conditions: brain and plasma (unbound), read-out: K(p,uu,brain).
On to `CCc1cc2ncc(CN3CCN(c4ccc(C(=O)NC)nc4)CC3)cc2[nH]c1=O` [SARUPARIB], for which the Kp uu is < 0.1.

As to `Cn1ncnc1[C@H]1c2n[nH]c(=O)c3cc(F)cc(c23)N[C@@H]1c1ccc(F)cc1` [TALAZOPARIB], the Kp uu is < 0.1.

Regarding `C[C@]1(c2nc3c(C(N)=O)cccc3[nH]2)CCCN1` [VELIPARIB], the Kp uu turned out to be 0.19.

For another data set, the target named is Poly [ADP-ribose] polymerase 1 (Homo sapiens, UniProt P09874). Nature of the data set: Inhibition of N-terminal 6His-tagged full-length recombinant human PARP1 by fluorescence anisotropy assay.
Chain of Poly [ADP-ribose] polymerase 1 (P09874 whole entry): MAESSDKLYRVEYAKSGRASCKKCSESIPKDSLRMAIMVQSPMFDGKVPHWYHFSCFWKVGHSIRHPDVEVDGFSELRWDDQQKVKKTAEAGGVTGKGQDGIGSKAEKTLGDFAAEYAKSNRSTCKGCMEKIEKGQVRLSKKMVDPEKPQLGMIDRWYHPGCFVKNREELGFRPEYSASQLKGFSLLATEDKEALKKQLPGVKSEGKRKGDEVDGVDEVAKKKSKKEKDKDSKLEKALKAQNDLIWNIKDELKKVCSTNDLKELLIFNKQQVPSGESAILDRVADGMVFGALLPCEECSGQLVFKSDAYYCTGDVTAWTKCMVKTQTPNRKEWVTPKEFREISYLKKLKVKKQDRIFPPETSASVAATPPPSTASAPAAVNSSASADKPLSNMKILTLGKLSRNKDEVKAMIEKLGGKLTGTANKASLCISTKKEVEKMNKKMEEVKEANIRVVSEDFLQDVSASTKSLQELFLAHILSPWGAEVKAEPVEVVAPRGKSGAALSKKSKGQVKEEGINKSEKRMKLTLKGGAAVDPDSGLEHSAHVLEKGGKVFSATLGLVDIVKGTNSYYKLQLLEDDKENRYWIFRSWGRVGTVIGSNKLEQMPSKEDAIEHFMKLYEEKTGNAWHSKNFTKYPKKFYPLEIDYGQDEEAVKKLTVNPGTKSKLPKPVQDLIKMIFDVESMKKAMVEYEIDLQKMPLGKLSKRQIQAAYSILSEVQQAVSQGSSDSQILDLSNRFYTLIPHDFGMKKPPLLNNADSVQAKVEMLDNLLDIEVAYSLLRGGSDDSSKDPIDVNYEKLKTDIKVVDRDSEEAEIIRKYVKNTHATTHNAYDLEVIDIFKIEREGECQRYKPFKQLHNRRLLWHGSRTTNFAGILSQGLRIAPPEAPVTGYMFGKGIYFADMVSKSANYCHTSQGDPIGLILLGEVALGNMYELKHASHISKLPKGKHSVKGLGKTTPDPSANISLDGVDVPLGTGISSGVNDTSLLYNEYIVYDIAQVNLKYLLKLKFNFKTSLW
Conditions: not given
In general terms: Polarisation of emitted light reports the rotation of a fluorescent probe.
In the case of `CCc1cc2ccc(CN3CCN(c4ccc(C(=O)NC)nc4C)CC3)cc2[nH]c1=O`, the negative logarithm of the IC50 (pIC50) was 8.30.

Turning to `CCc1nc2ccc(CN3CCN(c4ccc(F)nc4)CC3)cc2[nH]c1=O`, the pIC50 is 8.05.

For the molecule `CNC(=O)c1ccc(N2CCN(Cc3ccc4nc(C)c(=O)[nH]c4c3)CC2)c(F)n1`, the pIC50 was 8.10.

Take `CCc1cc2ccc(CN3CCN(c4cnc(C(=O)NC)cc4C)CC3)cc2[nH]c1=O`: the negative logarithm of the IC50 (pIC50) was 8.22.

`CNC(=O)c1ccc(N2CCN(Cc3ccc4c5c(c(=O)[nH]c4c3)COCC5)CC2)cn1`: the pIC50 is 8.40.

System in another data set: not listed separately
The data set is described as follows: Solubility of compound at pH 7.4. In kind it is physicochemical. As to conditions: buffer.
Take `CCc1nc2ccc(CN3CCN(c4ccc(C(=O)NC)nc4Cl)CC3)cc2[nH]c1=O`: the concentration in solution (solubility) was 8 µM (≈ 3.53 µg/mL).

Molecule `CCc1nc2ccc(CN3CCN(c4ccc(C(=O)NC)nc4C)CC3)cc2[nH]c1=O` displayed a solubility of 13 µM (≈ 5.47 µg/mL).

The molecule `CCc1cc2ccc(CN3CCN(c4ccc(C(=O)NC)nc4C)CC3)cc2[nH]c1=O` gave a solubility of 3 µM (≈ 1.26 µg/mL).

For `CCc1nc2ccc(CN3CCN(c4ccc(C(=O)NC)nc4F)CC3)c(C)c2[nH]c1=O`, the solubility was < 2 µM.

Take `CCc1nc2ccc(CN3CCN(c4ccc(C(=O)NC)nc4F)CC3)c(Cl)c2[nH]c1=O`: the solubility was found to be 20 µM (≈ 9.18 µg/mL).

`CCc1nc2ccc(CN3CCN(c4ccc(F)nc4)CC3)cc2[nH]c1=O` yielded a solubility of 9 µM (≈ 3.31 µg/mL).

The molecule `CNC(=O)c1ccc(N2CCN(Cc3ccc4nc(C)c(=O)[nH]c4c3)CC2)c(F)n1` returned a solubility of 26 µM (≈ 10.7 µg/mL).

`CCc1cc2ccc(CN3CCN(c4cnc(C(=O)NC)cc4C)CC3)cc2[nH]c1=O`: the concentration in solution (solubility) was 3 µM (≈ 1.26 µg/mL).

The molecule `CNC(=O)c1ccc(N2CCN(Cc3ccc4c5c(c(=O)[nH]c4c3)COCC5)CC2)cn1` had a solubility of 1 µM (≈ 0.434 µg/mL).

System in a further data set: not listed separately
Nature of the data set: Intrinsic clearance in human liver microsomes. The note with it: read-out: CLH. In kind it is ADME, Microsome. (In general: Liver microsomes are vesicles of endoplasmic reticulum, rich in cytochrome P450 enzymes.)
As for `CCc1nc2ccc(CN3CCN(c4ccc(C(=O)NC)nc4Cl)CC3)cc2[nH]c1=O`, the microsomal CLint turned out to be 10 µL/min/mg.

As for `CCc1nc2ccc(CN3CCN(c4ccc(C(=O)NC)nc4C)CC3)cc2[nH]c1=O`, the microsomal CLint stood at 10 µL/min/mg.

In the case of `CCc1cc2ccc(CN3CCN(c4ccc(C(=O)NC)nc4C)CC3)cc2[nH]c1=O`, the microsomal CLint was 19 µL/min/mg.

In the case of `CCc1nc2ccc(CN3CCN(c4ccc(C(=O)NC)nc4F)CC3)c(C)c2[nH]c1=O`, the microsomal CLint was < 3 µL/min/mg.

On to `CCc1nc2ccc(CN3CCN(c4ccc(C(=O)NC)nc4F)CC3)c(Cl)c2[nH]c1=O`, for which the microsomal CLint turned out to be 10 µL/min/mg.

As for `CCc1nc2ccc(CN3CCN(c4ccc(F)nc4)CC3)cc2[nH]c1=O`, the microsomal CLint was < 3 µL/min/mg.

On to `CNC(=O)c1ccc(N2CCN(Cc3ccc4nc(C)c(=O)[nH]c4c3)CC2)c(F)n1`, for which the microsomal CLint is < 3 µL/min/mg.

As for `CCc1cc2ccc(CN3CCN(c4cnc(C(=O)NC)cc4C)CC3)cc2[nH]c1=O`, the microsomal CLint stood at 33 µL/min/mg.

Turning to `CNC(=O)c1ccc(N2CCN(Cc3ccc4c5c(c(=O)[nH]c4c3)COCC5)CC2)cn1`, the microsomal CLint worked out at 17 µL/min/mg.

Turning to `CCc1cc2ncc(CN3CCN(c4ccc(C(=O)NC)nc4)CC3)cc2[nH]c1=O` [SARUPARIB], the microsomal CLint was < 6 µL/min/mg.

System in another data set: not listed separately
The data set is described as follows: Lipophilicity, log D of compound at pH 7.4. In kind it is physicochemical. As to conditions: buffer.
Regarding `CCc1nc2ccc(CN3CCN(c4ccc(C(=O)NC)nc4Cl)CC3)cc2[nH]c1=O`, the logD is 3.

`CCc1nc2ccc(CN3CCN(c4ccc(C(=O)NC)nc4C)CC3)cc2[nH]c1=O`: the logD was 2.9.

In turn, `CCc1cc2ccc(CN3CCN(c4ccc(C(=O)NC)nc4C)CC3)cc2[nH]c1=O` registered a logD of 3.3.

Consider `CCc1nc2ccc(CN3CCN(c4ccc(C(=O)NC)nc4F)CC3)c(C)c2[nH]c1=O`, for which the logD amounted to 3.1.

Regarding `CCc1nc2ccc(CN3CCN(c4ccc(C(=O)NC)nc4F)CC3)c(Cl)c2[nH]c1=O`, the logD amounted to 3.1.

`CCc1nc2ccc(CN3CCN(c4ccc(F)nc4)CC3)cc2[nH]c1=O` had a logD of 2.6.

`CNC(=O)c1ccc(N2CCN(Cc3ccc4nc(C)c(=O)[nH]c4c3)CC2)c(F)n1` showed a logD of 2.1.

As to `CCc1cc2ccc(CN3CCN(c4cnc(C(=O)NC)cc4C)CC3)cc2[nH]c1=O`, the logD was found to be 3.3.

For the molecule `CNC(=O)c1ccc(N2CCN(Cc3ccc4c5c(c(=O)[nH]c4c3)COCC5)CC2)cn1`, the log distribution coefficient (logD) is 2.

System in a further data set: not listed separately
Nature of the data set: Inhibition of cell proliferation of human DLD-1 cells expressing BRCA2-/- incubated for 7 days by Sytox green dye based analysis. In kind it is functional. The note with it: DLD-1, 168 h.
With `CCc1cc2cnc(CN3CCN(c4ccc(C(=O)NC)nc4)CC3)cc2[nH]c1=O`, the negative logarithm of the IC50 (pIC50) was 8.52.

With `CCc1nc2ccc(CN3CCN(c4ccc(C(=O)NC)nc4Cl)CC3)cc2[nH]c1=O`, the negative-log IC50 (pIC50) is 9.00.

The molecule `CCc1nc2ccc(CN3CCN(c4ccc(C(=O)NC)nc4C)CC3)cc2[nH]c1=O` gave a pIC50 of 8.70.

Molecule `CCc1cc2ccc(CN3CCN(c4ccc(C(=O)NC)nc4C)CC3)cc2[nH]c1=O` had a negative logarithm of the IC50 (pIC50) of 8.70.

The molecule `CCc1nc2ccc(CN3CCN(c4ccc(C(=O)NC)nc4F)CC3)c(C)c2[nH]c1=O` gave a negative logarithm of the IC50 (pIC50) of 7.92.

Take `CCc1nc2ccc(CN3CCN(c4ccc(C(=O)NC)nc4F)CC3)c(Cl)c2[nH]c1=O`: the pIC50 was 7.77.

Molecule `CCc1nc2ccc(CN3CCN(c4ccc(F)nc4)CC3)cc2[nH]c1=O` showed a pIC50 of 7.18.

`CCc1cc2ccc(CN3CCN(c4cnc(C(=O)NC)cc4C)CC3)cc2[nH]c1=O` showed a pIC50 of 5.94.

`C[C@]1(c2nc3c(C(N)=O)cccc3[nH]2)CCCN1` [VELIPARIB] had a pIC50 of 5.89.

The target of another data set is Voltage-gated inwardly rectifying potassium channel KCNH2 (Homo sapiens, UniProt Q12809). Nature of the data set: (§1) Inhibition of hERG transfected in CHO cells by electrophysiology. Format: toxicity, cell-based.
Chain of Voltage-gated inwardly rectifying potassium channel KCNH2 (Q12809 whole entry): as the sequence (Q12809 whole entry) above
Conditions: not given
(hERG is a cardiac potassium channel; its block is linked to QT prolongation.)
For `CCc1cc2ccc(CN3CCN(c4ccc(C(=O)NC)nc4C)CC3)cc2[nH]c1=O`, the negative-log IC50 (pIC50) was 4.77.

Turning to `CCc1nc2ccc(CN3CCN(c4ccc(F)nc4)CC3)cc2[nH]c1=O`, the pIC50 is < 4.40.

`CCc1cc2ccc(CN3CCN(c4cnc(C(=O)NC)cc4C)CC3)cc2[nH]c1=O` showed a negative logarithm of the IC50 (pIC50) of 5.10.

Consider `CNC(=O)c1ccc(N2CCN(Cc3ccc4c5c(c(=O)[nH]c4c3)COCC5)CC2)cn1`, for which the negative-log IC50 (pIC50) was < 4.40.

A further data set addresses hERG (KCNH2) (Homo sapiens, UniProt Q12809). The data set is described as §1. In kind it is toxicity, cell-based. As to conditions: human, CHO cells transfected with hERG.
In the case of `CCc1nc2ccc(CN3CCN(c4ccc(C(=O)NC)nc4F)CC3)c(Cl)c2[nH]c1=O`, the negative logarithm of the IC50 (pIC50) is < 4.40.

On to `CCc1cc2ncc(CN3CCN(c4ccc(C(=O)NC)nc4)CC3)cc2[nH]c1=O` [SARUPARIB], for which the negative-log IC50 (pIC50) is < 4.40.

A further data set concerns the target Poly [ADP-ribose] polymerase 2 (Homo sapiens, UniProt Q9UGN5). Nature of the data set: Inhibition of N-terminal 6His-tagged full-length recombinant human PARP2 by fluorescence anisotropy assay.
Conditions: not given
For `CCc1cc2ccc(CN3CCN(c4ccc(C(=O)NC)nc4C)CC3)cc2[nH]c1=O`, the pIC50 was 5.82.

Take `CCc1nc2ccc(CN3CCN(c4ccc(C(=O)NC)nc4F)CC3)c(C)c2[nH]c1=O`: the negative logarithm of the IC50 (pIC50) is < 4.00.

Consider `CCc1nc2ccc(CN3CCN(c4ccc(F)nc4)CC3)cc2[nH]c1=O`, for which the pIC50 is 4.34.

Regarding `CNC(=O)c1ccc(N2CCN(Cc3ccc4nc(C)c(=O)[nH]c4c3)CC2)c(F)n1`, the negative logarithm of the IC50 (pIC50) was 4.59.

As to `CCc1cc2ccc(CN3CCN(c4cnc(C(=O)NC)cc4C)CC3)cc2[nH]c1=O`, the pIC50 is 5.20.

Take `CNC(=O)c1ccc(N2CCN(Cc3ccc4c5c(c(=O)[nH]c4c3)COCC5)CC2)cn1`: the negative logarithm of the IC50 (pIC50) is 6.16.

The test system of a further data set is MDR1 (P-gp), BCRP. Nature of the data set: Efflux ratio in MDCK-MDR1-BCRP cells. In kind it is ADME, cell-based, Canis lupus familiaris. The note with it: dog.
With `CCc1nc2ccc(CN3CCN(c4ccc(C(=O)NC)nc4Cl)CC3)cc2[nH]c1=O`, the efflux ratio worked out at 6.7.

Regarding `CCc1nc2ccc(CN3CCN(c4ccc(C(=O)NC)nc4C)CC3)cc2[nH]c1=O`, the efflux ratio was determined as 2.2.

In the case of `CCc1nc2ccc(CN3CCN(c4ccc(C(=O)NC)nc4F)CC3)c(Cl)c2[nH]c1=O`, the efflux ratio was determined as 0.4.

Regarding `CCc1nc2ccc(CN3CCN(c4ccc(F)nc4)CC3)cc2[nH]c1=O`, the efflux ratio came out at 0.5.

For `CNC(=O)c1ccc(N2CCN(Cc3ccc4nc(C)c(=O)[nH]c4c3)CC2)c(F)n1`, the efflux ratio came to 3.6.

As to `CNC(=O)c1ccc(N2CCN(Cc3ccc4c5c(c(=O)[nH]c4c3)COCC5)CC2)cn1`, the efflux ratio was found to be 6.8.

(Values after ChEMBL document CHEMBL6078698, “Discovery of 6-Fluoro-5-{4-[(5-fluoro-2-methyl-3-oxo-3,4-dihydroquinoxalin-6-yl)methyl]piperazin-1-yl}-N-methylpyridine-2-carboxamide (AZD9574): A CNS-Penetrant, PARP1-Selective Inhibitor” (J Med Chem, 2024).)
